Data published in patent US20010054579A1, “METHOD OF SEPARATING DIFFERENT CHEMICALS IN A SAMPLE” (priority 1997, published 2001).

What was measured:
Assay type in all cases: physicochemical
[1] = Reversed-phase liquid chromatography retention factor (log k) on octyl bonded phase; settings: C8 column; for log k in 80% CH3CN, C8: aqueous 80% acetonitrile at 40° C.
Text: (§1) The inertness and the chemical stability of the synthesized hexyl-phenyl bonded silica gel were studied by looking at the retention factors and peak shapes of pyridine, benzoic acid, 8-hydroxyquinoline, and naphthalene disclosed in T. Hanai, Encyclopedia of Analytical Science (1995), Academic Press, London, p. […] which is hereby incorporated herein by reference. The retention factor, in terms of measured parameters, is “k=(tR−tO)/tO”: where tR is retention time of the measured peak; and to is retention time of non-retained component.
(§2) The retention capacities of alkyl-phenyl bonded silica gels were compared from the retention factors for alkylbenzenes and polycyclic aromatic hydrocarbons (PAH).
(§3) […] The log k values were used for the analysis of hydrophobicity of bonded phases using van der Waals volumes of analytes as the standard.
(§4) The liquid chromatograph was a model HP1090 from Hewlett-Packard (Palo Alto, Calif. USA), and the chemically-bonded silica gel columns, —C18, —C8 and —C5, —C6Ph, —C3Ph, 15 cm×4.6 mm I.D., were from Phenomenex Inc. (Torrance, Calif. USA). Chemicals used were from Aldrich and ChemService. HPLC grade acetonitrile and water were from Fisher Scientific (Tustin, Calif. USA).

[2] = Reversed-phase liquid chromatography retention factor (log k) on octadecyl bonded phase; settings: C18 column; for log k in 80% CH3CN, C18: aqueous 80% acetonitrile at 40° C.
Text: as §1, §2, §3, §4

[3] = Reversed-phase liquid chromatography retention factor (log k) on propyl-phenyl bonded phase; settings: C3Ph column; for log k in 80% CH3CN, C3Ph: aqueous 80% acetonitrile at 40° C.
Text: as §1, §2, §3, §4

[4] = Reversed-phase liquid chromatography retention factor (log k) on hexyl-phenyl bonded phase; settings: C6Ph column; for log k in 80% CH3CN, C6Ph: aqueous 80% acetonitrile at 40° C.
Text: as §1, §2, §3, §4

[5] = Reversed-phase liquid chromatography retention factor (log k) on pentyl bonded phase; settings: C5 column; for log k in 80% CH3CN, C5: aqueous 80% acetonitrile at 40° C.
Text: as §1, §2, §3, §4

| SMILES | log k in 70% CH3CN, C8 [1] | log k in 70% CH3CN, C18 [2] | log k in 70% CH3CN, C3Ph [3] | log k in 70% CH3CN, C6Ph [4] | log k in 70% CH3CN, C5 [5] | log k in 80% CH3CN, C5 [5] | log k in 80% CH3CN, C8 [1] | log k in 80% CH3CN, C18 [2] | log k in 80% CH3CN, C3Ph [3] | log k in 80% CH3CN, C6Ph [4] |
| --- | --- | --- | --- | --- | --- | --- | --- | --- | --- | --- |
| c1cc2c3c(cccc3c1)CC2 [Acenaphthene] | 0.629 | 0.814 | 0.447 | 0.616 | – | – | – | – | – | – |
| C1=Cc2cccc3cccc1c23 [Acenaphthylene] | 0.540 | 0.663 | 0.364 | 0.521 | 0.450 | – | – | – | – | – |
| c1ccc2cc3ccccc3cc2c1 [Anthracene] | 0.688 | 0.894 | 0.490 | 0.679 | 0.562 | – | – | – | – | – |
| c1ccccc1 [Benzene] | 0.281 | 0.340 | 0.167 | 0.230 | 0.209 | – | – | – | – | – |
| c1ccc2cc3c(ccc4ccccc43)cc2c1 [Benzo(a)anthracene] | 0.860 | 1.177 | 0.647 | 0.878 | 0.692 | – | – | – | – | – |
| c1ccc2c(c1)cc1ccc3cccc4ccc2c1c34 [Benzo(a)pyrene] | 0.071 | 1.375 | 0.733 | 1.009 | 0.755 | – | – | – | – | – |
| c1ccc2c(c1)-c1cccc3c1c-2cc1ccccc13 [Benzo(b)fluoranthene] | 0.943 | 1.325 | 0.714 | 0.970 | 0.741 | – | – | – | – | – |
| c1cc2ccc3ccc4ccc5cccc6c(c1)c2c3c4c56 [Benzo(g,h,i)perylene] | 1.067 | – | 0.799 | 1.118 | 0.822 | – | – | – | – | – |
| c1ccc2cc3c(cc2c1)-c1cccc2cccc-3c12 [Benzo(k)fluoranthene] | 0.959 | 1.347 | 0.726 | 0.982 | 0.741 | – | – | – | – | – |
| CCCCc1ccccc1 [Butylbenzene] | 0.776 | 0.963 | 0.548 | 0.648 | 0.653 | 0.462 | 0.561 | 0.702 | 0.274 | 0.391 |
| c1ccc2c(c1)ccc1c3ccccc3ccc21 [Chrysene] | 0.842 | 1.160 | 0.635 | 0.869 | 0.673 | – | – | – | – | – |
| CCCCCCCCCCc1ccccc1 [Decylbenzene] | – | – | 1.146 | 1.313 | 1.400 | 1.139 | 1.324 | 1.697 | 0.748 | 0.941 |
| c1ccc2c(c1)ccc1cc3c(ccc4ccccc43)cc12 [Dibenzo(a,h)anthracene] | 1.032 | 1.479 | 0.806 | 1.071 | 0.803 | – | – | – | – | – |
| CCc1ccccc1 [Ethylbenzene] | 0.513 | 0.628 | 0.348 | 0.428 | 0.417 | 0.258 | 0.324 | 0.394 | 0.121 | 0.215 |
| c1ccc2c(c1)-c1cccc3cccc-2c13 [Fluoranthene] | 0.747 | 0.989 | 0.535 | 0.746 | 0.599 | – | – | – | – | – |
| c1ccc2c(c1)Cc1ccccc1-2 [Fluorene] | 0.629 | 0.794 | 0.436 | 0.602 | 0.527 | – | – | – | – | – |
| CCCCCCCc1ccccc1 [Heptylbenzene] | 1.181 | 1.491 | 0.851 | 0.985 | 1.019 | 0.794 | 0.937 | 1.188 | 0.512 | 0.667 |
| CCCCCCc1ccccc1 [Hexylbenzene] | 1.043 | 1.310 | 0.747 | 0.871 | 0.894 | 0.679 | 0.806 | 1.021 | 0.430 | 0.572 |
| c1ccc2c(c1)-c1ccc3ccc4cccc5cc-2c1c3c45 [Indeno(1,2,3 cd)pyrene] | 1.067 | – | 0.803 | 1.102 | 0.822 | – | – | – | – | – |
| c1ccc2ccccc2c1 [Naphthalene] | 0.486 | 0.582 | 0.305 | 0.470 | 0.410 | – | – | – | – | – |
| CCCCCCCCCc1ccccc1 [Nonylbenzene] | 1.457 | – | 1.046 | 1.204 | 1.271 | 1.022 | 1.193 | 1.528 | 0.668 | 0.849 |
| CCCCCCCCc1ccccc1 [Octylbenzene] | 1.318 | 1.673 | 0.947 | 1.095 | 1.144 | 0.906 | 1.063 | 1.356 | 0.589 | 0.757 |
| CCCCCc1ccccc1 [Pentylbenzene] | 0.908 | 1.134 | 0.646 | 0.758 | 0.772 | 0.567 | 0.680 | 0.858 | 0.350 | 0.480 |
